Results on 3 molecules are retold here after patent US20250186379A1, “METHODS AND AGENTS FOR DECREASING INSULIN RESISTANCE” (Whitehead Institute for Biomedical Research, priority 2021, published 2025).

This assay relates to IR condensates. The experiment in a line: Imaging of IR puncta/condensates (immunofluorescence, IR-GFP) in HepG2 cells. The class given is cell-based, human. On the procedure: For insulin sensitivity and resistance experiments in HepG2 cells, cells were washed with EMEM once and cultured in EMEM for two days. […] To wash out insulin, cells were washed in EMEM seven times, which includes three quick washes, three 5 min washes and a long 20 minute-wash in EMEM at 37° C. In order to investigate insulin response, cells were acutely treated for 5 min with insulin diluted in EMEM supplemented with 1.25% fatty acid-free BSA at 37° C. with 5% CO2 in a humidified incubator.
Metformin (SIGMA, D150959-5G) was resuspended in sterile water to a concentration of 1M and diluted to the reported concentrations in the figures in cell media. […]
HepG2 cells, human liver spheroids and human tissue liver sections were fixed in 4% PFA (VWR, BT140770-10X10) in PBS for 10 min at room temperature. Cells were washed in PBS three times for 5 min and then blocked with 4% IgG-free BSA (VWR, 102643-516) for 15-60 min at room temperature. Cells were then incubated with 1:500 primary antibody in 4% IgG-free BSA at 4° C. overnight. The next day, cells were washed three times with PBS and incubated with 1:500 secondary antibodies in 4% IgG-free BSA at room temperature for 1 hr covered in foil. Cells were washed three times with PBS for 5 min. DNA was stained using 1:5000 Hoechst in PBS for 5 min at RT. Cells were washed three times with PBS for 5 min, stored at 4° C. until imaging. For tissue sections, samples were mounted using Vectashield mounting media (Vector Laboratories, Inc, H-1000). LSM880 microscope with Airyscan detector (ZEISS) was used for image acquisition. Images were then processed using Fiji/ImageJ v2.1.0/153c.
Cells expressing endogenous IR tagged with GFP were grown on 35 mm glass bottom dishes (MatTek Corporation, P35G-1.5-20-C). Cells were imaged at 37° C. using the SM880 Microscope with Airyscan detector with 63× objective and Zen Black software (ZEISS) at the W.M. Keck Microscopy Facility, MIT. Images were then processed using Fiji/ImageJ v2.1.0/153c.
To quantify IR fluorescent signal in puncta, Fiji/ImageJ v2.1.0/153c was used. A circle or an oval was drawn around IR puncta using the oval selection tool and the average fluorescence intensity in the circle/oval (=in the puncta) was determined using the measure tool on Fiji. Background was then subtracted as previously described. To quantify IR fluorescent signal at puncta in various cellular compartments, applicant identified the location of the plasma membrane, cytoplasm, nucleus and RNA FISH spots as follows. The plasma membrane location was identified based on IR immunofluorescence signal, IR-GFP fluorescent signal or CK18 immunofluorescence signal or cell edge. The nucleus was determined by the Hoechst stain for immunofluorescence and tc-PALM experiments or by IR-GFP fluorescence when HepG2 cells expressing IR-GFP were imaged. Given the overlap between Hoechst fluorescence and GFP fluorescence, artefactual green fluorescence coming from the Hoechst confounded IR puncta identification in the nucleus. Since the differences in IR puncta intensity and concentration between cytoplasm and nucleus in HepG2 cells was clear, nuclear outline was easily drawn based on IR-GFP fluorescent signal. Cytoplasm was considered the region between the plasma membrane and the nucleus. RNA FISH spots were identified based on RNA FISH probe fluorescence. Within the FISH spot, IR intensity was measured using the measure tool.
To estimate the number of IR puncta at the plasma membrane, cytoplasm, nucleus or in entire cells, IR puncta were initially counted in a cell slice using Fiji. The number obtained from the cell slice was then multiplied based on the estimated size of the plasma membrane, cytoplasm, nucleus or entire cell, which were obtained considering the length and width of the cell under investigation and the estimated height (˜5 um). […]

[1] abbreviates: insulin resistant HepG2 cells, metformin concentration series (FIG. 5A,B).
The mark [2] stands for this setting: insulin sensitive HepG2 cells, acute 3 nM insulin.

“Also recorded” adds a separate entry of the source.

Consider `CN(C)C(=N)N=C(N)N` [metformin, reference compound], for which the IR condensate rescue result (insulin resistant HepG2 cells, 12.5 uM metformin) was “significant; also recorded: evident”. Besides, under setting [1], the “intensity of IR signal in condensates” value is “dose-dependent increase” and the “number of IR containing condensates” value was “dose-dependent increase”. The “effect on IR condensates” value (insulin sensitive HepG2 cells, 50 nM metformin as printed (FIG. 13A)) is on record as “little or no effect on IR condensates”. For the same molecule, the “IR signal in puncta” value (insulin-resistant IR-GFP HepG2 cells, 12.5 μM metformin, 3 nM insulin 5 min (FIGS. 16D-16E, 30A)) is recorded as “partially restored IR signal in these puncta”. Further, the “effect on IR puncta / IR condensates” value (insulin-sensitive HepG2 IR-GFP cells with or without metformin (50 μM in FIG. 30B), 3 nM insulin 5 min) was “little or no effect on IR puncta; also recorded: does not affect IR condensates in insulin sensitive cells”.

Regarding TNFα, the “insulin-stimulated IR incorporation into puncta” value (HepG2 cells, 2 days pathological TNFα or high nutrients, 3 nM insulin 5 min (FIG. 27)) was “caused a decrease in insulin-stimulated IR incorporation into puncta”.

For “insulin: insulin (Sigma Aldrich, I9278-5ML) used for acute stimulation and chronic physiological or pathological exposure”, the “incorporation of additional IR into condensates/puncta” value (insulin resistant HepG2 cells, acute insulin (3 nM)) is “did not promote incorporation of additional IR into condensates; also recorded: did not promote incorporation of additional IR into puncta”. Moreover, under setting [2], the “IR signal intensity in puncta” value is “caused an increase; also recorded: elevated IR-GFP signal in these puncta; also recorded: promotes an increase in IR-GFP signal in IR puncta”; the “number of IR puncta in the cytoplasm and nucleus” value was “caused an increase; also recorded: increased numbers of cytoplasmic and nuclear puncta; also recorded: an increase in the number of IR puncta in the nucleus and cytoplasm”. Besides, the “IR-incorporation into condensates over a range of insulin concentrations” value (insulin-sensitive cells, 0, 0.1, 1, 10, 100 nM insulin 5 min (FIGS. 17G-17H)) was “non-linear transition”.
